Columns and labels:
HCC97L cells [1] = assay: Cell morphology and MTT cytotoxicity of agent alone; assay type: cell-based, human; set-up: dose or concentration left out as unconfirmed; conditions: AZI
Method: (§1) Then, HCC97L (3×10^3 well^−1), Hep3B (4×10^3 well^−1), PLC (4×10^3 well^−1), CNE1 (1.75×10^3 well^−1), CNE2 (3.5×10^3 well^−1), HONE1 (2×10^3 well^−1) and SUNE1 (2×10^3 well^−1) were seeded in 96-well plates ([…]) and allowed to attach for 24 h. After that, human liver cancer cell lines were treated with 3 chemotherapeutic drugs separately at different concentrations (as indicated in FIG. 2) in the presence of the anti-mycoplasma antibiotics for 48 h. […] In the P37-ANXA2 interruption experiment, A2PP was dissolved in DMSO and HCC97L cells were pretreated with A2PP (as indicated in FIG. 3) 24 h before GEM or MX treatment. […] (5 mg/ml final concentration; MP Biomedicals, LLC, CA, USA) was added to each well. After 4 h incubation at 37° C., the medium was removed and 100 μL/well DMSO (GBCBIO Technologies, Guangzhou, China) was added. The plates were mixed by a thermomixer for 5 min at RT. Absorbance measures were made in a microplate reader (iMark, Bio-Rad Laboratories, CA, USA) at 570/655 nm.

Hep3B = assay: as above; assay type: cell-based, human; set-up: dose or concentration left out as unconfirmed; conditions: AZI
Method: Then, HCC97L (3×10^3 well^−1), Hep3B (4×10^3 well^−1), PLC (4×10^3 well^−1), CNE1 (1.75×10^3 well^−1), CNE2 (3.5×10^3 well^−1), HONE1 (2×10^3 well^−1) and SUNE1 (2×10^3 well^−1) were seeded in 96-well plates (1004/well) and allowed to attach for 24 h. After that, human liver cancer cell lines were treated with 3 chemotherapeutic drugs separately at different concentrations (as indicated in FIG. 2) in the presence of the anti-mycoplasma antibiotics for 48 h. […] 104 of MTT (5 mg/ml final concentration; MP Biomedicals, LLC, CA, USA) was added to each well. After 4 h incubation at 37° C., the medium was removed and 100 μL/well DMSO (GBCBIO Technologies, Guangzhou, China) was added. The plates were mixed by a thermomixer for 5 min at RT. Absorbance measures were made in a microplate reader (iMark, Bio-Rad Laboratories, CA, USA) at 570/655 nm.

mycoplasma = assay: Mycoplasma detection using quantitative real-time PCR in cancer cell lines; assay type: cell-based; set-up: dose or concentration left out as unconfirmed; conditions: AZI
Method: Total DNA was extracted from 5×10^5 cells from each group by digestion at 70° C. for 10 min in 0.5% Tween-20, 50 mM Tris (pH 8.5), 1 mM EDTA, and 200 mg/L proteinase K, followed by phenol/chloroform/isoamyl alcohol extraction and sodium acetate precipitation. DNA precipitates were washed with 70% ethanol, dried, and dissolved in 20 μL of sterile water. The extracted DNA ([…], 1.2 μg) from the cells was added to […] of the reaction solution, containing PCR buffer (SuperRealPreMix, SYBR Green; Tiangen Biotech, Beijing, China) and primers pairs for mycoplasma detection and reference control (β-actin) with a final concentration of 0.12 μM for each primer, to a total volume of 10 μL. Quantitative real-time PCR (qPCR) was performed as the following profile: 95° C. for 1 min (preincubation), followed by 40 cycles at 95° C. for 10 s (denaturation), 60° C. for 30 s (annealing and elongation). The primers (Table 1) for mycoplasma detection were gifts from Prof. Zhongning Lin (School of Public Health, Xiamen University) including two forward primers for universal mycoplasmal detection, one forward primer to detect Myco M. pirum., one for Myco A. laidlawii. detection and a mix of degenerate primers to work as the reverse primers.

HCC97L cells [2] = assay: MTT assay, sensitivity to chemotherapeutic drugs with anti-mycoplasma agent or A2PP; assay type: cell-based, human; conditions: non-cytotoxic concentration of MXF or AZI; chemotherapeutic 48 h
Method: as §1

Hep3B cells = assay: MTT assay, sensitivity to chemotherapeutic drugs with anti-mycoplasma antibiotics; assay type: cell-based, human; conditions: non-cytotoxic concentration of MXF or AZI; chemotherapeutic 48 h
Method: as §1

PLC/PRF/5 cell line = assay: as above; assay type: cell-based, human; conditions: non-cytotoxic concentration of MXF or AZI; chemotherapeutic 48 h
Method: as §1

CNE2 = assay type: cell-based, human
Method: as §1

HONE1 cells = assay type: cell-based, human
Method: as §1

SUNE1 cells = assay type: cell-based, human
Method: as §1

Row | Structure (SMILES) | toxicity to cells (cell morphology and MTT assay) (HCC97L cells [1]) | toxicity to cells (cell morphology and MTT assay) (Hep3B) | anti-mycoplasma effect (Real Time PCR) (mycoplasma; HCC97L cells) | anti-mycoplasma effect (Real Time PCR) (mycoplasma; Hep3B cells) | anti-mycoplasma effect (Real Time PCR) (mycoplasma; PLC/PRF/5 cell line) | sensitivity of HCC97L cells to CDDP (HCC97L cells [2]) | sensitivity of HCC97L cells to GEM (HCC97L cells [2]) | sensitivity of HCC97L cells to MX (HCC97L cells [2]) | sensitivity of Hep3B cells to GEM (Hep3B cells) | sensitivity of Hep3B cells to MX (Hep3B cells) | efficacy of the anti-tumor drugs (CDDP, GEM, MX) in PLC/PRF/5 cell line (PLC/PRF/5 cell line) | sensitivity of CNE2 cells to 5-FU (CNE2) | sensitivity of HONE1 cells to 5-FU (HONE1 cells) | sensitivity of SUNE1 cells to 5-FU (SUNE1 cells)
1 | CC[C@H]1OC(=O)[C@H](C)[C@@H](O[C@H]2C[C@@](C)(OC)[C@@H](O)[C@H](C)O2)[C@H](C)[C@@H](O[C@@H]2O[C@H](C)C[C@H](N(C)C)[C@H]2O)[C@](C)(O)C[C@@H](C)CN(C)[C@H](C)[C@@H](O)[C@]1(C)O [AZI, azithromycin] | non-toxic | non-toxic | removed mycoplasma significantly | removed mycoplasma significantly | mycoplasma remained intact | enhanced | enhanced | enhanced | enhanced | enhanced | neither MXF nor AZI improved the efficacy |  |  | 
2 | COc1c(N2C[C@@H]3CCCN[C@@H]3C2)c(F)cc2c(=O)c(C(=O)O)cn(C3CC3)c12 [MXF, Moxifloxacin] |  |  |  |  |  |  |  |  |  |  |  | enhanced | enhanced | improved

Source: patent US11576930B2, “Methods and compositions for treatment of multi-drug resistant tumors” (priority 2017, dated 2023)
